The record followed here is US10214527B2, “Triazolopyridine inhibitors of myeloperoxidase” (priority 2015, dated 2019).

Broadly, the IC50 is the concentration that gives 50% inhibition.

The target in the first experiment is T1, myeloperoxidase (MPO) (Homo sapiens (Human), UniProt P05164). Description: MPO peroxidation assay (Amplex Red assay). It counts as biochemical.
T1 sequence (P05164 49-745): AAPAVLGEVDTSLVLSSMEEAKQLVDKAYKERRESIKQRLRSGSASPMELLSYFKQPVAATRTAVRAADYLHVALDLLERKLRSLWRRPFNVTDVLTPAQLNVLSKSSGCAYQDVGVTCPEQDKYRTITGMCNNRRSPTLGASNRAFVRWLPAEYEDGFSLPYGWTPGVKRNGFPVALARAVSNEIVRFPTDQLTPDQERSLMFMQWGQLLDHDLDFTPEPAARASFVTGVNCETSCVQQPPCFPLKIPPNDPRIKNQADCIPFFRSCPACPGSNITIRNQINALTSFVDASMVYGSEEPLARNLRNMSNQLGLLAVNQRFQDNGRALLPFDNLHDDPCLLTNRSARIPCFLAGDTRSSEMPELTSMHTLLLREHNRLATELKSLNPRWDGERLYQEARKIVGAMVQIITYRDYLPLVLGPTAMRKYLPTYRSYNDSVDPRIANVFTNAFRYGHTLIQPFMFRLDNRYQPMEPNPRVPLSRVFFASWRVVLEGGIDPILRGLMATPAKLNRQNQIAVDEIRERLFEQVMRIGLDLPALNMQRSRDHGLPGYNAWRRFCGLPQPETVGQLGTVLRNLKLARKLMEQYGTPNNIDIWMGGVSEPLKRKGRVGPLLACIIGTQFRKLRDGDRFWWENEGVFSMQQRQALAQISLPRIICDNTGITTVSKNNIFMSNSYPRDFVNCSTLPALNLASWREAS
Details: not given
Molecule `Nc1cc(Cc2cccc(Cl)c2)c2nn[nH]c2n1` [Example 2, 7-(3-chlorobenzyl)-3H-[1,2,3]triazolo [4,5-b]pyridin-5-amine] had a half-inhibitory concentration (IC50) of 1 to 100 nM. The same measure, in the same setting: as for `Nc1cc(Cc2ccc3ccccc3c2)c2nn[nH]c2n1` [Example 6, 7-(naphthalen-2-ylmethyl)-3H-[1,2,3] triazolo[4,5-b]pyridin-5-amine], the figure is 101 to 999 nM; as for `COC(=O)c1cccc(Cc2cc(N)nc3[nH]nnc23)c1` [Example 7, Methyl 3-((5-amino-3H-[1,2,3]triazolo[4,5-b]pyridin-7-yl)methyl)benzoate], 1 to 100 nM. `CS(=O)(=O)c1cccc(Cc2cc(N)nc3[nH]nnc23)c1` [Example 13, 7-(3-(methylsulfon-yl)benzyl)-3H-[1,2,3]triazolo [4,5-b]pyridin-5-amine]: the half-inhibitory concentration (IC50) is 1000 to 10000 nM. In turn, `Nc1cc(Cc2cccc(-c3ccccc3)c2)c2nn[nH]c2n1` [Example 17, 7-(Biphenyl-3-ylmethyl)-3H-[1,2,3]triazolo[4,5-b]pyridin-5-amine] displayed a 50% inhibitory concentration (IC50) of 1 to 100 nM. Same read-out and setting: as for `Nc1cc(Cc2ccccc2F)c2nn[nH]c2n1` [Example 23, 7-(2-fluorobenzyl)-3H-[1,2,3]triazolo [4,5-b]pyridin-5-amine], the figure is 1 to 100 nM.

The molecule `Nc1cc(Cc2cccc(C(F)(F)F)c2)c2nn[nH]c2n1` [Example 26, 7-(3-(trifluorometh-yl)benzyl)-3H-[1,2,3]triazolo [4,5-b]pyridin-5-amine] returned a half-maximal inhibitory concentration (IC50) of 1000 to 10000 nM.

The experiment is the same for the next values; noted with them: MPO peroxidation, potency range class; read-out: Amplex Red Assay IC50 value.
As to `Cc1ccc(Cc2cc(N)nc3[nH]nnc23)cc1` [Example 3, 7-(4-methylbenzyl)-3H-[1,2,3]triazolo [4,5-b]pyridin-5-amine], the 50% inhibitory concentration (IC50) is 101 to 999 nM. On the same count and under the same terms, as for `COc1ccc(Cc2cc(N)nc3[nH]nnc23)cc1` [Example 4, 7-(4-methoxybenzyl)-3H-[1,2,3] triazolo[4,5-b]pyridin-5-amine], the figure is 101 to 999 nM; as for `N#Cc1ccc(F)c(Cc2cc(N)nc3[nH]nnc23)c1` [Example 8, 3-((5-amino-3H-[1,2,3]triazolo [4,5-b]pyridin-7-yl)methyl)-4-fluorobenzo-nitrile], 1 to 100 nM.

`Cc1cccc(Cc2cc(N)nc3[nH]nnc23)c1F` [Example 9, 7-(2-fluoro-3-methylbenzyl)-3H-[1,2,3]triazolo [4,5-b]pyridin-5-amine]: the 50% inhibitory concentration (IC50) lay in the range of 1 to 100 nM.

As to `COC(=O)c1ccc(Cc2cc(N)nc3[nH]nnc23)c(OC)c1` [Example 10, methyl 4-((5-amino-3H-[1,2,3]triazolo[4,5-b]pyridin-7-yl)methyl)-3-methoxybenzo-ate], the concentration for half-maximal inhibition (IC50) was 101 to 999 nM. Turning to `Nc1cc(Cc2ccc(-n3cccn3)cc2)c2nn[nH]c2n1` [Example 11, 7-(4-(1H-pyrazol-1-yl)benzyl)-3H-[1,2,3]triazolo [4,5-b]pyridin-5-amine], the half-maximal inhibitory concentration (IC50) was in the range of 101 to 999 nM. With `CC(C)(C)OC(=O)N1CCCc2cc(Cc3cc(N)nc4[nH]nnc34)ccc21` [Example 12, tert-butyl 6-((5-amino-3H-[1,2,3]triazolo[4,5-b]pyridin-7-yl)methyl)-3,4-dihydroquinoline-1(2H)-carboxylate], the IC50 lay in the range of 101 to 999 nM.

`Nc1cc(Cc2cccc(-c3cccc(F)c3)c2)c2nn[nH]c2n1` [Example 14, 7-((3′-fluoro-[1,1′-biphenyl]-3-yl)methyl)-3H-[1,2,3]triazolo [4,5-b] pyridin-5-amine]: the half-maximal inhibitory concentration (IC50) lay in the range of 101 to 999 nM. For the molecule `Cc1ccc(-c2cccc(Cc3cc(N)nc4[nH]nnc34)c2)cc1` [Example 15, 7-((4′-methyl-[1,1′-biphenyl]-3-yl)methyl)-3H-[1,2,3]triazolo [4,5-b] pyridin-5-amine], the IC50 lay within 101 to 999 nM. `Nc1cc(Cc2cccc(Cc3ccccc3)c2)c2nn[nH]c2n1` [Example 16, 7-(3-benzylbenzyl)-3H-[1,2,3]triazolo [4,5-b]pyridin-5-amine]: the IC50 is 1 to 100 nM. For the molecule `Nc1cc(Cc2c(F)ccc(Cl)c2F)c2nn[nH]c2n1` [Example 18, 7-(3-chloro-2,6-difluorobenzyl)-3H-[1,2,3]triazolo [4,5-b]pyridin-5-amine], the IC50 lay in the range of 1 to 100 nM. `Nc1cc(Cc2ccc3cc(F)ccc3c2)c2nn[nH]c2n1` [Example 19, 7-((6-fluoronaphthalen-2-yl)methyl)-3H-[1,2,3]triazolo [4,5-b]pyridin-5-amine]: the IC50 was in the range of 101 to 999 nM. Same read-out and setting: as for `Nc1cc(Cc2ccc3c(c2)OCO3)c2nn[nH]c2n1` [Example 20, 7-(benzo[d][1,3]dioxol-5-ylmethyl)-3H-[1,2,3]triazolo [4,5-b]pyridin-5-amine], the figure is 101 to 999 nM; as for `Nc1cc(Cc2ccc3c(c2)CCC3)c2nn[nH]c2n1` [Example 22, 7-((2,3-dihydro-1H-inden-5-yl)methyl)-3H-[1,2,3]triazolo [4,5-b]pyridin-5-amine], 101 to 999 nM; as for `Nc1cc(Cc2cccc(F)c2)c2nn[nH]c2n1` [Example 24, 7-(3-fluorobenzyl)-3H-[1,2,3]triazolo [4,5-b]pyridin-5-amine], 1 to 100 nM.

For `Nc1cc(Cc2cccc(Oc3ccc(F)cc3)c2)c2nn[nH]c2n1` [Example 27, 7-(3-(4-fluorophenoxy)benzyl)-3H-[1,2,3]triazolo [4,5-b]pyridin-5-amine], the 50% inhibitory concentration (IC50) is 101 to 999 nM. Consider `Cc1nc(-c2ccc(Cc3cc(N)nc4[nH]nnc34)cc2)no1` [Example 32, 7-(4-(5-methyl-1,2,4-oxadiazol-3-yl)benzyl)-3H-[1,2,3]triazolo [4,5-b] pyridin-5-amine], for which the half-maximal inhibitory concentration (IC50) was 101 to 999 nM.

On to `Nc1cc(Cc2c(F)cccc2F)c2nn[nH]c2n1` [Example 33, 7-(2,6-difluorobenzyl)-3H-[1,2,3] triazolo[4,5-b]pyridin-5-amine], for which the concentration for half-maximal inhibition (IC50) was in the range of 1 to 100 nM. In the case of `CC(C)(C)c1ccc(Cc2cc(N)nc3[nH]nnc23)cc1` [Example 35], the IC50 was 101 to 999 nM. On to `Nc1cc(Cc2ccc(OC(F)(F)F)cc2)c2nn[nH]c2n1` [Example 36, 7-(4-(trifluorometh-oxy)benzyl)-3H-[1,2,3]triazolo [4,5-b]pyridin-5-amine], for which the IC50 is 1000 to 10000 nM. Regarding `Nc1cc(Cc2ccccc2CS(=O)(=O)c2ccccc2)c2nn[nH]c2n1` [Example 38, 7-(2-((phenylsulfon-yl)methyl)benzyl)-3H-[1,2,3]triazolo [4,5-b]pyridin-5-amine], the IC50 is 101 to 999 nM. For `Nc1cc(Cc2ccc(C(=O)c3ccccc3)cc2)c2nn[nH]c2n1` [Example 39, (4-((5-amino-3H-[1,2,3]triazolo [4,5-b]pyridin-7-yl)methyl)phenyl)(phenyl) methanone], the IC50 lay in the range of 101 to 999 nM. `Nc1cc(Cc2ccc(-c3csnn3)cc2)c2nn[nH]c2n1` [Example 41, 7-(4-(1,2,3-thiadiazol-4-yl)benzyl)-3H-[1,2,3]triazolo [4,5-b]pyridin-5-amine]: the IC50 was in the range of 101 to 999 nM.

Consider `Nc1cc(Cc2cc(F)ccc2F)c2nn[nH]c2n1` [Example 42, 7-(2,5-difluorobenzyl)-3H-[1,2,3] triazolo[4,5-b]pyridin-5-amine], for which the IC50 lay in the range of 1 to 100 nM. Turning to `Nc1cc(Cc2cccc(Cl)c2F)c2nn[nH]c2n1` [Example 45, 7-(3-chloro-2-fluorobenzyl)-3H-[1,2,3] triazolo[4,5-b]pyridin-5-amine], the concentration for half-maximal inhibition (IC50) is 1 to 100 nM.

With `Nc1cc(Cc2cccc(C(=O)NCc3ccccc3)c2)c2nn[nH]c2n1` [Example 46, 3-((5-Amino-3H-[1,2,3]triazolo[4,5-b]pyridin-7-yl)methyl)-N-benzylbenzamide], the IC50 lay in the range of 101 to 999 nM. For the molecule `Nc1cc(Cc2cccc(OCc3ccccc3)c2)c2nn[nH]c2n1` [Example 49, 7-(3-(Benzyloxy)benzyl)-3H-[1,2,3]triazolo[4,5-b]pyridin-5-amine], the IC50 was in the range of 101 to 999 nM. Consider `Nc1cc(Cc2cccc(-n3cccn3)c2)c2nn[nH]c2n1` [Example 52, 7-(3-(1H-pyrazol-1-yl)benzyl)-3H-[1,2,3]triazolo [4,5-b]pyridin-5-amine], for which the IC50 lay within 101 to 999 nM. With `Cc1cc(C)n(-c2cccc(Cc3cc(N)nc4[nH]nnc34)c2)n1` [Example 53, 7-(3-(3,5-dimethyl-1H-pyrazol-1-yl)benzyl)-3H-[1,2,3]triazolo [4,5-b] pyridin-5-amine], the IC50 lay in the range of 101 to 999 nM. Regarding `Cc1cccc(Cc2cc(N)nc3[nH]nnc23)n1` [Example 54, 7-((6-methylpyridin-2-yl)methyl)-3H-[1,2,3]triazolo [4,5-b]pyridin-5-amine], the concentration for half-maximal inhibition (IC50) lay within 101 to 999 nM. Consider `COc1ccc(-c2cccc(Cc3cc(N)nc4[nH]nnc34)n2)cc1` [Example 55, 7-((6-(4-methoxyphenyl)pyridin-2-yl)methyl)-3H-[1,2,3]triazolo [4,5-b] pyridin-5-amine], for which the IC50 lay in the range of 101 to 999 nM. Same read-out and setting: the figure for `Nc1cc(Cc2cccc3c2ccn3Cc2ccccc2)c2nn[nH]c2n1` [Example 59, 7-((1-Benzyl-1H-indol-4-yl)methyl)-3H-[1,2,3]triazolo[4,5-b]pyridin-5-amine] is 1 to 100 nM; for `CCn1ccc2c(Cc3cc(N)nc4[nH]nnc34)cccc21` [Example 60, 7-((1-Ethyl-1H-indol-4-yl)methyl)-3H-[1,2,3]triazolo[4,5-b]pyridin-5-amine] it is 101 to 999 nM; for `Nc1cc(Cc2cccc3c2ccn3Cc2cccc(-c3ccccc3)c2)c2nn[nH]c2n1` [Example 61, 7-((1-([1,1′-Biphenyl]-3-ylmethyl)-1H-indol-4-yl)methyl)-3H-[1,2,3]triazolo[4,5-b]pyridin-5-amine] it is 1 to 100 nM. Consider `Cn1ncc2ccc(Cc3cc(N)nc4[nH]nnc34)cc21` [Example 67, 7-((1-Methyl-1H-indazol-6-yl)methyl)-3H-[1,2,3]triazolo[4,5-b]pyridin-5-amine], for which the IC50 fell in the range of 101 to 999 nM.

As for `Cn1ncc2cc(Cc3cc(N)nc4[nH]nnc34)ccc21` [Example 68, 7-((1-Methyl-1H-indazol-5-yl)methyl)-3H-[1,2,3]triazolo[4,5-b]pyridin-5-amine], the concentration for half-maximal inhibition (IC50) was 101 to 999 nM.

The next experiment deals with T1, myeloperoxidase (MPO). As to the kind of experiment: MPO chlorination assay (APF assay). In kind it is biochemical.
Details: not given
With `CS(=O)(=O)c1cccc(Cc2cc(N)nc3[nH]nnc23)c1` [Example 13, 7-(3-(methylsulfon-yl)benzyl)-3H-[1,2,3]triazolo [4,5-b]pyridin-5-amine], the IC50 lay in the range of 1000 to 10000 nM.

The experiment is the same for the next values; noted with them: MPO chlorination, potency range class; read-out: APF Assay IC50 value.
For the molecule `Nc1cc(Cc2ccc(-n3cccn3)cc2)c2nn[nH]c2n1` [Example 11, 7-(4-(1H-pyrazol-1-yl)benzyl)-3H-[1,2,3]triazolo [4,5-b]pyridin-5-amine], the IC50 is 101 to 999 nM. Consider `Nc1cc(Cc2cccc(-c3cccc(F)c3)c2)c2nn[nH]c2n1` [Example 14, 7-((3′-fluoro-[1,1′-biphenyl]-3-yl)methyl)-3H-[1,2,3]triazolo [4,5-b] pyridin-5-amine], for which the IC50 fell in the range of 1 to 100 nM. In the case of `Nc1cc(Cc2cccc(Cc3ccccc3)c2)c2nn[nH]c2n1` [Example 16, 7-(3-benzylbenzyl)-3H-[1,2,3]triazolo [4,5-b]pyridin-5-amine], the IC50 is 1 to 100 nM.
